In ChEMBL document CHEMBL1201862, “PubChem BioAssay data set” (2004):
Active and inactive are the calls of the source.

Experiments:
[1] = OVCAR4 cell viability loss – plate reader, dry powder, SA11, cytotoxicity control for PAX8 inhibitor project, dose response (AID 743150); format: functional, cell-based; conditions: OVCAR-4
[2] = biological target: Beta Lactamase (Pseudomonas aeruginosa, UniProt Q932Y6); assay: BLA reporter interference, concentration series – BLA reporter cells, FRET fluorescence, artefact control for TLR9-MyD88 binding inhibitor project, dose response (AID 588341); format: cell-based;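 further: cell based assay in CHO-K1 cells stably expressing beta-lactamase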
Chain of Beta Lactamase (Q932Y6 whole entry): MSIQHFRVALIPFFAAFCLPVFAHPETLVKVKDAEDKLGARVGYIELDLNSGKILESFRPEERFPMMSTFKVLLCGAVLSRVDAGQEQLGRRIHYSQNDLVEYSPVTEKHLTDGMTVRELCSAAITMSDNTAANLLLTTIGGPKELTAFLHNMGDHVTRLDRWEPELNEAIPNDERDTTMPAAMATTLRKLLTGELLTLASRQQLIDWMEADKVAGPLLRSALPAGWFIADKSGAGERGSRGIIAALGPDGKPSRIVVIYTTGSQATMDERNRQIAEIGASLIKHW

[3] = IGROV1 cell killing – plate reader, dry powder samples, PAX8 inhibitor project, dose response (AID 743043); format: functional, cell-based; conditions: IGROV-1
[4] = OVCAR-3 cell viability loss – plate reader, dry powder samples, PAX8 inhibitor project, dose response (AID 743044); format: functional, cell-based
[5] = biological target: T1, Microphthalmia-associated transcription factor (Homo sapiens, UniProt O75030); assay: reducers of TRPM1 reporter luminescence, concentration series – cell-based, SK-MEL-5, cherry-picked, set 3, MITF inhibitor project, dose response (AID 493073); format: functional;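 further: SK-MEL-5 melanoma cells with luciferase driven by the MITF target TRPM1 promoter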
T1 sequence (O75030 whole entry): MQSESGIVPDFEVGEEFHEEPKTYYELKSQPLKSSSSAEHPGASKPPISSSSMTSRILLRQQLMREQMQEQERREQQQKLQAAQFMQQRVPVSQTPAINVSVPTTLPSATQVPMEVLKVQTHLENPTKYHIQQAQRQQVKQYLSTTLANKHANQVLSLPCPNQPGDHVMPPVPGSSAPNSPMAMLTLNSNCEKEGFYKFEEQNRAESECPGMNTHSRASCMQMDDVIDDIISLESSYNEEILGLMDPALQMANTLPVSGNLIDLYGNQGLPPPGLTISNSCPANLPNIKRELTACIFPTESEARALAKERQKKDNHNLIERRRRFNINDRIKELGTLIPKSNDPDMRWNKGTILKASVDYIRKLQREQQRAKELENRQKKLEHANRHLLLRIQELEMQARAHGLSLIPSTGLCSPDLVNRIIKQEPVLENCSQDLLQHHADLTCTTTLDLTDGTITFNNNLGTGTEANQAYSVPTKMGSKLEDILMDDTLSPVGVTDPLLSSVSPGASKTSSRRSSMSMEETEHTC

[6] = biological target: T2, Protein RecA (Mycobacterium tuberculosis, UniProt P9WHJ3); assay: Fluorescence Cell-Free Homogeneous Dose Retest to Identify Inhibitors of RecA-Intein Splicing Activity. [Related pubchem assays (depositor defined):AID2097, AID2223, AID489010, AID492950]; format: functional
T2 sequence (P9WHJ3 whole entry): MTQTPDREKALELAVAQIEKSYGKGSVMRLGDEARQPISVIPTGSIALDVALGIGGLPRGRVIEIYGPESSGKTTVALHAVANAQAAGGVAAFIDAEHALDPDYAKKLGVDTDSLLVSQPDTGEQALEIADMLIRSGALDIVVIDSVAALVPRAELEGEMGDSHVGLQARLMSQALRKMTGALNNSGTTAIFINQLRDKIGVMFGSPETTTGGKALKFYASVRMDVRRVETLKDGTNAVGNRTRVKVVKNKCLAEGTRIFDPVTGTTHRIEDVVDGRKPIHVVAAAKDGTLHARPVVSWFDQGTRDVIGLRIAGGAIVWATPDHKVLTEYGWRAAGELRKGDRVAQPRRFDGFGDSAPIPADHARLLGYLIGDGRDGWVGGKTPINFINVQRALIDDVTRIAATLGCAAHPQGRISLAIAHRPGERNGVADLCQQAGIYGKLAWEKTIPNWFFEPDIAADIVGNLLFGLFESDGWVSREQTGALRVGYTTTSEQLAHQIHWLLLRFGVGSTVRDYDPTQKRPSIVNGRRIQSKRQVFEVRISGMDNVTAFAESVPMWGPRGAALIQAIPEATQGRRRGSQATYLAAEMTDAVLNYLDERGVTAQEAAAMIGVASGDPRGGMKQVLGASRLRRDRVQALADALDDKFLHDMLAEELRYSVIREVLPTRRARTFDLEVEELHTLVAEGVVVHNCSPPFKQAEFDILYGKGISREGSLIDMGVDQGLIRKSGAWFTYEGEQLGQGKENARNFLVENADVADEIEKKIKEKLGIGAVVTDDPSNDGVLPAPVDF

[7] = PAX8-dependent cell viability loss – plate reader, dry powder, dose response (AID 743049); format: functional, cell-based
[8] = reduction of Shn3 3'UTR-driven luciferase in osteoblasts – cell-based, Clone20 osteoblasts, firefly luciferase, cherry-picked, dose response (AID 624132); format: functional;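 further: firefly luciferase luminescence from reporter carrying the Shn3 3'UTR in osteoblasts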
[9] = biological target: T3, Bcl-2-related protein A1 (Mus musculus, UniProt Q07440); format: functional;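 further: confirmatory dose–response counterscreen on Bfl-1, used to check hits from a UBC13 polyubiquitin inhibitor campaign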
T3 sequence (Q07440 whole entry): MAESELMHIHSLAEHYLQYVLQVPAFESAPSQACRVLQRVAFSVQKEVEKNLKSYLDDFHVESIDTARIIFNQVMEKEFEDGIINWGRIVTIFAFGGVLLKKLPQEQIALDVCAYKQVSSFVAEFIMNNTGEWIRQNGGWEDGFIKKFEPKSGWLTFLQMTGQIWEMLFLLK

[10] = biological target: Paired box protein Pax-8 (Homo sapiens, UniProt Q06710); assay: PAX8 transcriptional activity inhibition in RMG-I – RMG-I cells, luciferase, cherry-pick, dose response (AID 687027); format: functional, cell-based;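 further: luciferase reporter driven by Pax8 target thyroperoxidase promoter measured by SteadyGlo luminescence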
Chain of Paired box protein Pax-8 (Q06710 whole entry): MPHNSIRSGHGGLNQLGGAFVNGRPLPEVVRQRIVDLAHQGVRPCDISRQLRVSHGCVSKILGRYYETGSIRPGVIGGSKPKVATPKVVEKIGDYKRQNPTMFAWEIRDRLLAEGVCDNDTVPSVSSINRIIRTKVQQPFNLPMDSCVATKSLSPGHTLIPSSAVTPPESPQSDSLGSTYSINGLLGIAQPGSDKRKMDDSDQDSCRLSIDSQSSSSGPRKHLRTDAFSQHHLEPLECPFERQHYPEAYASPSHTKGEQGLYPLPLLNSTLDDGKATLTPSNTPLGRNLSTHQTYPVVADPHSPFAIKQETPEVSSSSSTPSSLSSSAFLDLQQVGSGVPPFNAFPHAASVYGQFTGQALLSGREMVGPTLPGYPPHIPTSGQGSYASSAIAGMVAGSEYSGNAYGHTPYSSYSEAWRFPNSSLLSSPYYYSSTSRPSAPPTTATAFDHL

[11] = OV-90 cell viability loss – plate reader, dry powder, SA8, PAX8 inhibitor project, dose response (AID 743149); format: functional, cell-based
[12] = biological target: T4, Replicative DNA helicase DnaB (Mycobacterium tuberculosis, UniProt P9WMR3); assay: DnaB intein splicing inhibitors, dose response, biochemical, cell-free fluorescence (AID 449749); format: functional
T4 sequence (P9WMR3 whole entry): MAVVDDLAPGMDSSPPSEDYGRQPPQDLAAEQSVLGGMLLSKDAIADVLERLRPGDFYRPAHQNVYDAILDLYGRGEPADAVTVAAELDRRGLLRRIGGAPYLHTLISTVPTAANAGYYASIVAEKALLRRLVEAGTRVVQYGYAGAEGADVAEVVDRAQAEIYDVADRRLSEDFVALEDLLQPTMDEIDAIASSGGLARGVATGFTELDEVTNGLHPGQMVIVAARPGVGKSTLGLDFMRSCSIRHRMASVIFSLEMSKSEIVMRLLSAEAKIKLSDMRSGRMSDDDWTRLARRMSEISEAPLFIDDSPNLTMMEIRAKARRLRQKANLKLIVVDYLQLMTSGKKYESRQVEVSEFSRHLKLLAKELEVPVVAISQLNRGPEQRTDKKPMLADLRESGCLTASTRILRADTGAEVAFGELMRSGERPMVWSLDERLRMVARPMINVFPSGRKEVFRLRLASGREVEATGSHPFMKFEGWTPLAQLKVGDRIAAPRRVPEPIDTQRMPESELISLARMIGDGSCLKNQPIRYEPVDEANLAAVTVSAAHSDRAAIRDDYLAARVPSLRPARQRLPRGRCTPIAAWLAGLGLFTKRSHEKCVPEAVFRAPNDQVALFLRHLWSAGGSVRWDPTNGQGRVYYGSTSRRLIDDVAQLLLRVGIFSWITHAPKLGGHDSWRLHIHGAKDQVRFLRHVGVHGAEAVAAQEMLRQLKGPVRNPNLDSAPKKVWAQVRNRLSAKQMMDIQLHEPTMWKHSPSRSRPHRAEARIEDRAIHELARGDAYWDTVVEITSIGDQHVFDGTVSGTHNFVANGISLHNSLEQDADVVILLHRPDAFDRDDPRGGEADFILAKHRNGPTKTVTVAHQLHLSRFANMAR

[13] = A2780 cell killing – plate reader, dry powder samples, cytotoxicity control, dose response (AID 743046); format: functional, cell-based
[14] = biological target: T5, Ubiquitin-conjugating enzyme E2 N (Homo sapiens, UniProt P61088); format: functional
T5 sequence (P61088 whole entry): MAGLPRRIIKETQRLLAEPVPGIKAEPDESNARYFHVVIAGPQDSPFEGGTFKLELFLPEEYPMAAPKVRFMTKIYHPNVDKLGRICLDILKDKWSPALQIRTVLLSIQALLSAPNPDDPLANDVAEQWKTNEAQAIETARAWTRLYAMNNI

[15] = non-specific 3'UTR reporter inhibition in Clone20-Shn3RL – cell-based, Renilla luciferase, cherry-picked, counter-screen for Shn3 inhibitor project, dose response (AID 624133); format: functional
[16] = toxicity toward immortalized ovarian surface epithelium – cell-based, plate reader, dry powder samples, cytotoxicity control for PAX8 inhibitor project, dose response (AID 743045); format: functional
[17] = COV362 cell viability loss – plate reader, dry powder, SA12, cytotoxicity control for PAX8 inhibitor project, dose response (AID 743144); format: functional, cell-based
[18] = biological target: ATP-binding cassette sub-family B member 6 (Homo sapiens, UniProt Q9NP58); assay: ABCB6 transporter inhibitors, porphyrin accumulation, dose response, flow cytometry, K562-ABCB6 cells, cherry pick 02 (AID 624487); format: functional; conditions: read-out: EC50_MICROM
Chain of ATP-binding cassette sub-family B member 6 (Q9NP58 whole entry, the tested form may be a part): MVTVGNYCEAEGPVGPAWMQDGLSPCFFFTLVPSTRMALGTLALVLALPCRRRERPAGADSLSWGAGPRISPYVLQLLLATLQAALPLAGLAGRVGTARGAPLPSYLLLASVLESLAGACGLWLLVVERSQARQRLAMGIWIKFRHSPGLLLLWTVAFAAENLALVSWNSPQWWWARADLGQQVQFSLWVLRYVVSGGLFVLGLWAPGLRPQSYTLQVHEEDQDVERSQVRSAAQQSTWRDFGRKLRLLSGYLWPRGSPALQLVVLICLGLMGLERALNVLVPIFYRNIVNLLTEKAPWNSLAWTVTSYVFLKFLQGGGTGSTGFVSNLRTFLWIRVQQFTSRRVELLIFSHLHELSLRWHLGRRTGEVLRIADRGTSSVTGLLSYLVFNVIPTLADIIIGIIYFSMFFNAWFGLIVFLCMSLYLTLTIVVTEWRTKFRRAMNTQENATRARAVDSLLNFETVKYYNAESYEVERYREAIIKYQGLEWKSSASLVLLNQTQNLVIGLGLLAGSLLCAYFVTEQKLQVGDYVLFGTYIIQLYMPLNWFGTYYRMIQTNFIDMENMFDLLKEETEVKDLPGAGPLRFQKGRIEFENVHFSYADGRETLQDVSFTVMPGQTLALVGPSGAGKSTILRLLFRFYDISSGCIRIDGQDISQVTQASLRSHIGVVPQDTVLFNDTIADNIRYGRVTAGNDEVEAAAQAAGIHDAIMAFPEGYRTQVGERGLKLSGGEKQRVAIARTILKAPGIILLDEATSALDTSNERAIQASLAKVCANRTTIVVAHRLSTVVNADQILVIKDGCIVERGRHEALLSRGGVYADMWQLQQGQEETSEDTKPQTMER

[19] = tested on: CHO; assay: CHO cell viability loss, potency – luminescence, cytotoxicity control for TLR9-MyD88 binding inhibitor project, dose response (AID 588339); format: functional, cell-based, hamster; conditions: Cricetulus griseus;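 further: CHO cells stably coexpressing TLR9 and MyD88 fusions from primary screen; compound exposure lasted 48 hours before viability readout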
[20] = general cell-killing toxicity readout – plate reader, dry powder samples, cytotoxicity control for PAX8 inhibitor project, dose response (AID 743021); format: functional, cell-based
[21] = COV434 cell viability loss – plate reader, dry powder, SA7, cytotoxicity control for PAX8 inhibitor project, dose response (AID 743145); format: functional, cell-based
[22] = loss of viability in HepG2 cells – cell-based, CellTiter-Glo, cherry-picked, cytotoxicity control for Shn3 inhibitor project, dose response (AID 624134); format: functional
[23] = biological target: T5, Ubiquitin-conjugating enzyme E2 N; format: functional; remark: listed apart in the source
[24] = tested on: Jurkat; assay: blockers of NF-kB activation in T cells – Jurkat, luciferase reporter, luminescence, B- and T-cell, dose response (AID 489004); format: functional, cell-based; conditions: Homo sapiens;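 further: NF-kB luciferase reporter Jurkat cells stimulated with PMA plus ionomycin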
[25] = HEK-293T viability loss, compound-treated – cell-based, uHTS hits, cytotoxicity control for B/T-cell NF-kB inhibitor project, dose response (AID 489019); format: functional;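 further: IC50 reflects cytotoxicity as loss of cell viability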
[26] = tested on: H4; assay: inhibitors of control reporter signal in H4 cells – cell-based, plate reader, dry powder samples, counter-screen for prion reporter project, dose response (AID 540255); format: functional; conditions: Homo sapiens
[27] = blockade of melanocortin 4 receptor signaling – cell-based, plate reader, cherry pick, counter-screen for LGR2 antagonist project, dose response (AID 743444); format: functional;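 further: transfected HEK 293 cells stimulated with alpha-MSH peptide; potency of inhibitors of the alpha-MSH evoked signal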
[28] = biological target: Luciferin 4-monooxygenase (Photinus pyralis, UniProt P08659); assay: inhibition of purified Photinus pyralis luciferase – biochemical, dry powder samples, plate reader, dose response (AID 588451)
Chain of Luciferin 4-monooxygenase (P08659 whole entry): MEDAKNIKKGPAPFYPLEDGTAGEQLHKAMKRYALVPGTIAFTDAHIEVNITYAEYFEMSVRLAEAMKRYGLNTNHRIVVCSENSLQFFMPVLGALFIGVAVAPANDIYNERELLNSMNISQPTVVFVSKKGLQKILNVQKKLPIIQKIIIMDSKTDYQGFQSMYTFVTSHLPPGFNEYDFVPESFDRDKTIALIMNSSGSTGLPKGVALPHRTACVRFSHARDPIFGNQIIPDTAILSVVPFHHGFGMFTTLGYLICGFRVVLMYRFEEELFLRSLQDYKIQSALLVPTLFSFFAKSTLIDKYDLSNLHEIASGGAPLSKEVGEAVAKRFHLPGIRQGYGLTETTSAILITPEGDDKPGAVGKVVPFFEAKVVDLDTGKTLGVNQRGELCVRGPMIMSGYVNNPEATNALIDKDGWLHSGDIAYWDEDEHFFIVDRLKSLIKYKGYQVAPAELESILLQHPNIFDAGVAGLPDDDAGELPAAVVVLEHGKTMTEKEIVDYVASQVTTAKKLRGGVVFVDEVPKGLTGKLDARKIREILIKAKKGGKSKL

[29] = blockers of bursicon-stimulated LGR2 cAMP reporter – cell-based, HEK293, CRE-luciferase reporter, cherry pick, set 2, dose response (AID 743343); format: functional;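 further: transfected cells were stimulated with diluted bursicon conditioned medium after compound addition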
[30] = tested on: H4; assay: Inhibitors of Prion Protein 5' UTR mRNA Measured in Cell-Based System Using Plate Reader - 2078-01_Inhibitor_Dose_DryPowder_Activity. [Related pubchem assays (depositor defined):AID488894]; format: functional; conditions: Homo sapiens
[31] = tested on: H4; assay: Amyloid Precursor 5' UTR neuroblastoma cell reporter line Measured in Cell-Based System Using Plate Reader - 2078-04_Inhibitor_Dose_DryPowder_Activity. [Related pubchem assays (depositor defined):AID488894]; format: functional; conditions: Homo sapiens
[32] = biological target: Glycogen synthase kinase-3 alpha (Homo sapiens, UniProt P49840); assay: Inhibition of Human GSK-3 alpha Activity Measured in Biochemical System Using Microfluidics - 2063-06_Inhibitor_Dose_DryPowder_Activity_Set2. [Related pubchem assays (depositor defined):AID2709]
Chain of Glycogen synthase kinase-3 alpha (P49840 whole entry): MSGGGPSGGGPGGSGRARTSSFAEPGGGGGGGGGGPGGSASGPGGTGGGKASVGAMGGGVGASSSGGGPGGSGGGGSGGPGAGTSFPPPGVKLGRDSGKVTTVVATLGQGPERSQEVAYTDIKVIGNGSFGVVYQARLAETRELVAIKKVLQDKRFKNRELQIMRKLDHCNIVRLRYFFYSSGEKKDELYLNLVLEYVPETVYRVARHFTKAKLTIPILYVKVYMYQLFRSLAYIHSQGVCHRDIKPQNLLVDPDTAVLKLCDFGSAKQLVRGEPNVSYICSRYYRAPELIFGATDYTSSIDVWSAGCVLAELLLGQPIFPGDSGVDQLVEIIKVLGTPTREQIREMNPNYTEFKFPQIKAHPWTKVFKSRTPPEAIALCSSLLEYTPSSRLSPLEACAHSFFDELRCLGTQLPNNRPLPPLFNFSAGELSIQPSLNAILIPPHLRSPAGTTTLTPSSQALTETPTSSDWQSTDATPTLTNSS

[33] = biological target: T6, Cyclin-dependent kinase 5/CDK5 activator 1 (Homo sapiens, UniProt Q00535); assay: blockade of human CDK5 activity – biochemical, cherry-picked samples, set 2, dose response (AID 504545)
T6 sequence (Q00535 whole entry): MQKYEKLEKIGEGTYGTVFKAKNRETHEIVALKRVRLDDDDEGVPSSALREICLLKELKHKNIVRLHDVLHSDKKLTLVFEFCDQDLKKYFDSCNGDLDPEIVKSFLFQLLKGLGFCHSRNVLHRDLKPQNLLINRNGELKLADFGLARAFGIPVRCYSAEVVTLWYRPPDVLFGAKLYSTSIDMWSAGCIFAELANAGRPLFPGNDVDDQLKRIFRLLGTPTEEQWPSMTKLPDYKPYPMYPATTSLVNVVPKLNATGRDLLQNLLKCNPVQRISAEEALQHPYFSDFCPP
T6 sequence (Q15078 whole entry, further chain): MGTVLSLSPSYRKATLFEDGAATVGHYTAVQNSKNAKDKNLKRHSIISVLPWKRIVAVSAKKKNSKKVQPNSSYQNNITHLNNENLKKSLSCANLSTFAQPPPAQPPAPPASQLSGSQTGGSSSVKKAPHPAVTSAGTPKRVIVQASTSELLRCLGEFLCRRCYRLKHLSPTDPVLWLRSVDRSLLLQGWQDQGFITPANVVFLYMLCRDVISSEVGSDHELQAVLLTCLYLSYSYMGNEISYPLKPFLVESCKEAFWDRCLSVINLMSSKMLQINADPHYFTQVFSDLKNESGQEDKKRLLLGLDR

[34] = biological target: T6, Cyclin-dependent kinase 5/CDK5 activator 1; assay: human CDK5 activity blockade – biochemical, microfluidic mobility shift, dry powder, selectivity assay for GSK-3 alpha inhibitor project, dose response (AID 588430)
[35] = biological target: Glycogen synthase kinase-3 beta (Homo sapiens, UniProt P49841); assay: Inhibition of Human GSK-3 beta Activity Measured in Biochemical System Using Microfluidics - 2063-05_Inhibitor_Dose_DryPowder_Activity_Set2. [Related pubchem assays (depositor defined):AID2709]
Chain of Glycogen synthase kinase-3 beta (P49841 whole entry): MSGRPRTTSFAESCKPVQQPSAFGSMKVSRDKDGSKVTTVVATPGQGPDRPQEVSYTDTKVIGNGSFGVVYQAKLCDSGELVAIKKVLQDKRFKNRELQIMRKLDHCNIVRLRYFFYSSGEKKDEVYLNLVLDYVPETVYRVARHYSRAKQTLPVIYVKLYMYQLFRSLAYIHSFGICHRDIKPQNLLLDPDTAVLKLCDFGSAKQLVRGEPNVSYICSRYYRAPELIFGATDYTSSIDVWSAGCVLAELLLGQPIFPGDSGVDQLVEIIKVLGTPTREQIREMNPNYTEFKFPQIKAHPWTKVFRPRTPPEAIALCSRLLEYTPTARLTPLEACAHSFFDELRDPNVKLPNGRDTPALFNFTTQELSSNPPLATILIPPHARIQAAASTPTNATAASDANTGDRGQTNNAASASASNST

[36] = tested on: Candida albicans; assay: resistant Candida growth with fluconazole co-treatment – CaCi-8 strain, Alamar Blue, dry powder, set 3, dose response (AID 488905); format: functional, organism-based
[37] = tested on: Candida albicans; assay: Candida growth inhibition combined with fluconazole – CaCi-2 strain, Alamar Blue, dry powder, set 3, dose response (AID 488907); format: functional, organism-based

## CC(=O)Nc1ccc(NC(=O)c2nc(S(=O)(=O)Cc3ccccc3)ncc2Cl)cc1
[1]
  AC50: 25.9 µM (active)
[2]
  IC50: 7.61 µM (active)
[3]
  AC50: 15.8 µM (active)
[4]
  AC50: 15.3 µM (active)
[5]
  AC50: 12.8 µM (active)
[6]
  EC50: 9.36 µM (active)
[7]
  AC50: 17.6 µM (active)
[8]
  AC50: 0.773 µM (active)
[9]
  IC50: > 20 µM (inactive)
[10]
  AC50: 9.86 µM (active)
[11]
  AC50: 30 µM (active)
[12]
  AC50: 11.2 µM (active)
[13]
  AC50: 10.2 µM (active)
[14]
  IC50: > 20 µM (inactive)
[15]
  AC50: 6.33 µM (active)
[16]
  AC50: 18.2 µM (active)
[17]
  AC50: 23.1 µM (active)
[18]
  EC50: 8.72 µM (active)
[19]
  IC50: 6.31 µM (active)
[20]
  AC50: 20.7 µM (active)
[21]
  AC50: 12.7 µM (active)
[22]
  AC50: 28.6 µM (active)
[23]
  IC50: 10.9 µM (active)

## Cc1cc(C(=O)COC(=O)c2ccccc2O)c(C)n1CC1CCCO1 (configuration not stated)
[24]
  IC50: 0.25 µM (active)
[25]
  IC50: > 80 µM (inactive)
[26]
  AC50: 0.273 µM (active)
[27]
  AC50: 0.178 µM (active)
[28]
  AC50: 1.05 µM (active)
[29]
  AC50: 0.178 µM (active)
[30]
  AC50: 0.017 µM (active)
[31]
  AC50: 0.00598 µM (active)

## COc1ccc2nc3c(cc2c1)c(NC(=O)CC(C)C)nn3CC(C)C
[32]
  AC50: 1.48 µM (active)
[33]
  AC50: 32.7 µM (active)
[34]
  AC50: 1.4 µM (active)
[35]
  AC50: 0.228 µM (active)

## CCCCC(=O)N1CCN(c2ccccn2)CC1
[36]
  AC50: 0.283 µM (active)
[37]
  AC50: 0.73 µM (active)
